Reference: publication PMC4777480, “Trichoderma harzianum Produces a New Thermally Stable Acid Phosphatase, with Potential for Biotechnological Application” (PLoS ONE, 2016)
Values belong to the molecule of their own block, whether it stands above or below them.

Experiments:
ACPase II = molecular target: T1, ACPase II (Trichoderma harzianum, UniProt A0A2T3ZY58); details: 5000 µM; 5 mM inorganic phosphate, 60°C; Table 3 gives residual activity instead
T1 construct: gene M431DRAFT_96728
T1 sequence (A0A2T3ZY58 21-556): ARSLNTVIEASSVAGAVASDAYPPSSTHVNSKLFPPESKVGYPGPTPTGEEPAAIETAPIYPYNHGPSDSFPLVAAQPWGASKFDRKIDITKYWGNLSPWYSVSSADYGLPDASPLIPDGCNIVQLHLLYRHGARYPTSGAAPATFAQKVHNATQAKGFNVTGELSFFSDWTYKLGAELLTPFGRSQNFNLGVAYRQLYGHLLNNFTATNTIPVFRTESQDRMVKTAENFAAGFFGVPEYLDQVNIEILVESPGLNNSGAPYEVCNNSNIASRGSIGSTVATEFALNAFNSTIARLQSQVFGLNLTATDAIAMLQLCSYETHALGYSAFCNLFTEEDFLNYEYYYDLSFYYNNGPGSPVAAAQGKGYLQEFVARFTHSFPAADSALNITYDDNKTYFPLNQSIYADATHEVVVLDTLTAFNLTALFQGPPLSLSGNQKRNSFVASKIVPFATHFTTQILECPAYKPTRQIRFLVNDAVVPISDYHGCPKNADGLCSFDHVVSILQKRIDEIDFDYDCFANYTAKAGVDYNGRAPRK

[1] = molecular target: the molecule itself; experiment: SEC + other: dynamic light scattering; data not shown; ACPase II in solution, eluted in the void volume; hydrodynamic radius 14.3 nm, mass 326 kDa; conditions of the light scattering not told

ACPase II (ACPase II): 65.0 ± 2.0%
Molecule: O=P(O)(O)O [sodium phosphate]

B1: ACPase II (acid phosphatase II) from Trichoderma harzianum (enzyme)
chain: T1 sequence (A0A2T3ZY58 21-556)
modifications: glycoprotein, approximately 30% carbohydrate (N- and O-glycosylation)
stoichiometry N [1]: 4
